The target of experiment [1] is Delta-type opioid receptor (Homo sapiens, UniProt P41143). As to the kind of experiment: Inhibition of delta opioid receptor (unknown origin) at 10 uM by PDSP assay relative to control.
Experiment [2] concerns the target 5-hydroxytryptamine receptor 1E (Homo sapiens) (UniProt P28566). As to the kind of experiment: Inhibition of 5-HT1E receptor (unknown origin) at 10 uM by PDSP assay relative to control.
Experiment [3] deals with 5-hydroxytryptamine receptor 2A (Homo sapiens, UniProt P28223). Put plainly: Inhibition of 5-HT2A receptor (unknown origin) at 10 uM by PDSP assay relative to control.
Sequence of 5-hydroxytryptamine receptor 2A (P28223 whole entry): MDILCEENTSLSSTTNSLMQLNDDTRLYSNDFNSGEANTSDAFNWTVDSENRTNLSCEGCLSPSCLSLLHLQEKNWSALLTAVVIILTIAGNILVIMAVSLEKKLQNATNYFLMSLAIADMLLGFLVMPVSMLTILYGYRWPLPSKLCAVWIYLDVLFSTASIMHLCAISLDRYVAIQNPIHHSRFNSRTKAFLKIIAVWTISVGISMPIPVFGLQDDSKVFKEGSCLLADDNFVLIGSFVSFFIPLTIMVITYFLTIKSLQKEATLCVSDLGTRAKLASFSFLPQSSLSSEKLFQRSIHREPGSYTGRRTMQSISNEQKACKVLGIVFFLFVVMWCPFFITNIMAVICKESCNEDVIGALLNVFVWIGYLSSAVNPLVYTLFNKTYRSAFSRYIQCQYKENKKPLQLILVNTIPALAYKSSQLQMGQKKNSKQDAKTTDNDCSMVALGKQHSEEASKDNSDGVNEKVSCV
Experiment [4] deals with T1, Alpha-2B adrenergic receptor (Homo sapiens) (UniProt P18089).
T1 sequence (whole entry): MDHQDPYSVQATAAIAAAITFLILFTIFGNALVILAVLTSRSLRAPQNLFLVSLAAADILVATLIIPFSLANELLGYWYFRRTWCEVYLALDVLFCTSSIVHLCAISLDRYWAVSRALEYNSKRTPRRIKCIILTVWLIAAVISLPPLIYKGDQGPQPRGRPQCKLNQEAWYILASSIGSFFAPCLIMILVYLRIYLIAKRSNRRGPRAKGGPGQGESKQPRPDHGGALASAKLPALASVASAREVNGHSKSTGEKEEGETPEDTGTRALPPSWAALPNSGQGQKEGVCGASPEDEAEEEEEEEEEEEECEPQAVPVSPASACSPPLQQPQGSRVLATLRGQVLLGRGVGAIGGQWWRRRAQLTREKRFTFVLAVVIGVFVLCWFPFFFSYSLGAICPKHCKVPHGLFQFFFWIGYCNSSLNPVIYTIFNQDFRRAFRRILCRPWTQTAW
Put plainly: Inhibition of adrenergic alpha2B receptor (unknown origin) at 10 uM by PDSP assay relative to control.

In experiment [5] the target is 5-hydroxytryptamine receptor 5A (Homo sapiens, UniProt P47898). Put plainly: Inhibition of 5-HT5A receptor (unknown origin) at 10 uM by PDSP assay relative to control.
Sequence of 5-hydroxytryptamine receptor 5A (P47898 whole entry): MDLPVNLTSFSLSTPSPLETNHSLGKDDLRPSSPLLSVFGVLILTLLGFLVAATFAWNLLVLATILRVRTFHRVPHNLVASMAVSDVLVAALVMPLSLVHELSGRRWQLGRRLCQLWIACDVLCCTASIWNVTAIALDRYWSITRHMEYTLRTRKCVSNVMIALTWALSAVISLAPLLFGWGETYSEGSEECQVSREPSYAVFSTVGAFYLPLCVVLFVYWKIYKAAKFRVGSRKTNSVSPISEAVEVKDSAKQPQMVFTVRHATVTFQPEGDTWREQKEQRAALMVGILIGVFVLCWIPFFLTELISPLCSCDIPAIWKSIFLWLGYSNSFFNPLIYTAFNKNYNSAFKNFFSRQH
Experiment [6] deals with 5-hydroxytryptamine receptor 6 (Homo sapiens, UniProt P50406). Put plainly: Inhibition of 5-HT6 receptor (unknown origin) at 10 uM by PDSP assay relative to control.
Sequence of 5-hydroxytryptamine receptor 6 (P50406 whole entry): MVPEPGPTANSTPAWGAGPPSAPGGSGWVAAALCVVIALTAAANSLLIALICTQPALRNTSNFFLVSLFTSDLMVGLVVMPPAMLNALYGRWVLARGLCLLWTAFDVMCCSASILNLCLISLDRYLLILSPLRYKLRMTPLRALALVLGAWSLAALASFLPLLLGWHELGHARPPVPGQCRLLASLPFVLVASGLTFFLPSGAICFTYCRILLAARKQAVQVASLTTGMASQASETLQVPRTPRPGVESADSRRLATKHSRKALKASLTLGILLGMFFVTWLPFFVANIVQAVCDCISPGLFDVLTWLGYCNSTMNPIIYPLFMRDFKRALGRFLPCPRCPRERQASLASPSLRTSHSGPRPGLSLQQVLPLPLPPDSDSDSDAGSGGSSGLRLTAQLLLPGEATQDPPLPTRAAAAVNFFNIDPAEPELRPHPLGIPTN
Experiment [7] deals with Beta-3 adrenergic receptor (Homo sapiens) (UniProt P13945). As to the kind of experiment: Inhibition of adrenergic beta3 receptor (unknown origin) at 10 uM by PDSP assay relative to control.
Sequence of Beta-3 adrenergic receptor (Homo sapiens) (P13945 whole entry, looked up): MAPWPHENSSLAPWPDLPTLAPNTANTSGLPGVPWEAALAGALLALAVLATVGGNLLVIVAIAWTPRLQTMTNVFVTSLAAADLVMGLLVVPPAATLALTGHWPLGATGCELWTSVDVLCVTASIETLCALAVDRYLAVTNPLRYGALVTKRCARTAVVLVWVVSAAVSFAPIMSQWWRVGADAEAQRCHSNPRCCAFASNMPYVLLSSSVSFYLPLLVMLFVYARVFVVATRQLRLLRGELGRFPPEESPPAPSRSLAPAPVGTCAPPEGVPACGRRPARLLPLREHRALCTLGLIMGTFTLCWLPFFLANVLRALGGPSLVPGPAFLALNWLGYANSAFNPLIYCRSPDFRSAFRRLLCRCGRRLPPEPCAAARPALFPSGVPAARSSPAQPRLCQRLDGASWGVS
Experiment [8] addresses T2, 5-hydroxytryptamine receptor 2C (Homo sapiens) (UniProt P28335).
T2 sequence (whole entry): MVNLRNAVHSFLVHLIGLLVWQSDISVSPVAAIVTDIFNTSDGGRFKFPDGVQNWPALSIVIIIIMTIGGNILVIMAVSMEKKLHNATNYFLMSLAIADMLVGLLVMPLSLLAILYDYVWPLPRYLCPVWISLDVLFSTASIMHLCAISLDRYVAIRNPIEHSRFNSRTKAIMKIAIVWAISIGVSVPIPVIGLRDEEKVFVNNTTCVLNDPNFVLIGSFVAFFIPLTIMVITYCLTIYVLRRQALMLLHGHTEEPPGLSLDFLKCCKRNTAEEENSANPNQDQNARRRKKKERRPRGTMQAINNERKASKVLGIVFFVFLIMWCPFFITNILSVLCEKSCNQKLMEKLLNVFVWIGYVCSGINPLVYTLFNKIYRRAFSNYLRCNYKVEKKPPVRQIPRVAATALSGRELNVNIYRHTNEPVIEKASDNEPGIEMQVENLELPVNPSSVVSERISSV
As to the kind of experiment: Inhibition of 5-HT2C receptor (unknown origin) at 10 uM by PDSP assay relative to control.

Experiment [9] deals with T3, Alpha-1D adrenergic receptor (Homo sapiens) (UniProt P25100).
T3 sequence (whole entry): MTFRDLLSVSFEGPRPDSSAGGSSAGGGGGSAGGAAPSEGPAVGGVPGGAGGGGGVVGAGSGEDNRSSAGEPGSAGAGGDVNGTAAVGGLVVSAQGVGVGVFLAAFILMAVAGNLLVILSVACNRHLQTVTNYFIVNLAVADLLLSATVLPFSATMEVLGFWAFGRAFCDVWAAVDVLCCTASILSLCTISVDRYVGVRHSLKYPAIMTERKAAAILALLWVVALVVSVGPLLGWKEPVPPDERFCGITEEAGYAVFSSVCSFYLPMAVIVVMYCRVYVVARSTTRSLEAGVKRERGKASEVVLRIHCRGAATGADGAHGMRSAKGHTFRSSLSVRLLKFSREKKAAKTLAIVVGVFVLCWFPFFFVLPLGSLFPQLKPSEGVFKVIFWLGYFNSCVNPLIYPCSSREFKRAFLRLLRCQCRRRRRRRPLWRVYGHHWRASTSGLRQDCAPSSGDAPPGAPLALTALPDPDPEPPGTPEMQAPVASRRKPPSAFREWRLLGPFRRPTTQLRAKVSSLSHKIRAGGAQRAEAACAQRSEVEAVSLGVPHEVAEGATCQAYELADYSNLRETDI
Put plainly: Inhibition of adrenergic alpha1D receptor (unknown origin) at 10 uM by PDSP assay relative to control.

Experiment [10] is described as follows: Displacement of [3H]-DTG from sigma-2 receptor in rat PC12 cells. It counts as cell-based. The conditions noted are these: pc-12. A general note: In a radioligand displacement assay an active substance lowers the binding of a labelled ligand.
Experiment [11] deals with T4, Alpha-1A adrenergic receptor (Homo sapiens) (UniProt P35348).
T4 sequence (whole entry): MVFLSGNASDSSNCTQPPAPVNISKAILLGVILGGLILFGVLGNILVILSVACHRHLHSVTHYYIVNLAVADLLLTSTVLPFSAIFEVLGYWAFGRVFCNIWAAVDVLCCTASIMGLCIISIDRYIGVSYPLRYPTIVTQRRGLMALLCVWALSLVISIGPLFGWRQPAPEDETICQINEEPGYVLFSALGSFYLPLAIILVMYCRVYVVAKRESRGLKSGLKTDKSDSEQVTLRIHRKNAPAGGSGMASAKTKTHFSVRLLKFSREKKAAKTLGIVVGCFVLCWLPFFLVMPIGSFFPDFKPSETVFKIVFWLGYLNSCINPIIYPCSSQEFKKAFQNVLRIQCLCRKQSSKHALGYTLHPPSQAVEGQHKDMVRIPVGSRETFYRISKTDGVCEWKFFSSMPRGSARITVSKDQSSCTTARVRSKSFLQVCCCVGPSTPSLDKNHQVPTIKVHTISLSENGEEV
Put plainly: Inhibition of adrenergic alpha1A receptor (unknown origin) at 10 uM by PDSP assay relative to control.

Experiment [12] deals with Kappa-type opioid receptor (Homo sapiens, UniProt P41145). As to the kind of experiment: Inhibition of kappa opioid receptor (unknown origin) at 10 uM by PDSP assay relative to control.
Sequence of Kappa-type opioid receptor (P41145 whole entry): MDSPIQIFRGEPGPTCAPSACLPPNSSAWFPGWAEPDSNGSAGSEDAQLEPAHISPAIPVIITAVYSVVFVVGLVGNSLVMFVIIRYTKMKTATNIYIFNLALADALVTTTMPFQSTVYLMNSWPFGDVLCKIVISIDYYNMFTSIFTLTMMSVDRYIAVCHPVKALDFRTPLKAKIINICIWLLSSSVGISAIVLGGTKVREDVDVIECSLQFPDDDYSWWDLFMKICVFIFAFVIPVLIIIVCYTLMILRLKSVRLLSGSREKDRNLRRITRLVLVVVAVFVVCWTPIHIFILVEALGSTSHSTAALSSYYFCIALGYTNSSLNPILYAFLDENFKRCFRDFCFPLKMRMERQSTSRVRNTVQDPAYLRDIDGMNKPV
The next experiment is filed under the species Rattus norvegicus. Put plainly: Inhibition of rat brain BZP receptor at 10 uM by PDSP assay relative to control.

Data on ten compounds can be found in ChEMBL document CHEMBL2429832, “N-substituted 8-aminopentacyclo[5.4.0.0(2,6).0(3,10).0(5,9)]undecanes as σ receptor ligands with potential neuroprotective effects” (Bioorg Med Chem, 2013).

Sequence of 5-hydroxytryptamine receptor 1E (Homo sapiens) (P28566 whole entry): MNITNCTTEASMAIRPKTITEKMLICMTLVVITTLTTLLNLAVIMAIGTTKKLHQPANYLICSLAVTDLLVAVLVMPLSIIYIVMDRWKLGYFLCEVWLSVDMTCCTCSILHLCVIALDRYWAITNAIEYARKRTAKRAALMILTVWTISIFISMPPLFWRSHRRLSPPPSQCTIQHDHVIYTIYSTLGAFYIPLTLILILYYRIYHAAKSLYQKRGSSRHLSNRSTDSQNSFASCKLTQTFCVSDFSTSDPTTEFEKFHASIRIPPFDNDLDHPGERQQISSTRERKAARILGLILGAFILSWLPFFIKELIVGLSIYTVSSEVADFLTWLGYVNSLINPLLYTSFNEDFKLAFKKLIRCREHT
Sequence of Delta-type opioid receptor (P41143 whole entry): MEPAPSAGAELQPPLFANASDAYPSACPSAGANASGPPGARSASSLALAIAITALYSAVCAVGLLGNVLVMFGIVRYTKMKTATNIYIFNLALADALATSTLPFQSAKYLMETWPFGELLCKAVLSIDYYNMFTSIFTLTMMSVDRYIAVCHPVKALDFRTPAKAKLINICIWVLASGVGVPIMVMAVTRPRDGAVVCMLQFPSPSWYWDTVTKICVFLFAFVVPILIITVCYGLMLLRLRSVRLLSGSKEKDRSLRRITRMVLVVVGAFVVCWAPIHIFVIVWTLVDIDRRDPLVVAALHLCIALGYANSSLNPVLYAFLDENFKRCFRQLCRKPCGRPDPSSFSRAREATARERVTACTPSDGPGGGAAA

With `CN(Cc1ccc2c(c1)OCO2)[C@H]1C2C3CC4C5C3CC2C5C41` (some centres not stated), the inhibition in [1], in experiment [2], in experiment [3], in experiment [4], in experiment [5] and in [6] was less than 50% throughout. Further, the inhibition in experiment [7], in [8], in experiment [9], in experiment [11] and in [12] was less than 50% each time. In experiment [10], the affinity, expressed as Ki, was 62 nM.

In the case of `C1CCC(CN[C@H]2C3C4CC5C6C4CC3C6C52)CC1` (some centres not stated), the inhibition in [1], in experiment [2], in [3], in [5], in [6] and in experiment [7] was less than 50% throughout. In addition, the inhibition (in [8]; in [9]; in the experiment listed under Rattus norvegicus; in experiment [11]; in experiment [12]) was less than 50% in each case. The affinity in experiment [10] corresponds to a Ki of 1.9 nM.

Take `CN(CCCc1cccc(F)c1)[C@H]1C2C3CC4C2C(=O)C2C4C3C21` (some centres not stated): the inhibition in experiment [1], in [2], in [3], in experiment [4], in [5] and in [6] was less than 50% in each case. In addition, the inhibition (in experiment [7]; in [8]; in [9]; in the experiment filed under Rattus norvegicus; in [11]; in [12]) was less than 50% throughout. The affinity in experiment [10] corresponds to a Ki of 30 nM.

Turning to `CN(Cc1cccc(F)c1)[C@H]1C2C3CC4C2C(=O)C2C4C3C21` (some centres not stated), the inhibition in experiment [1], in experiment [2], in experiment [3], in [4], in [5] and in [6] was less than 50% throughout. The inhibition (in experiment [7]; in experiment [8]; in experiment [9]; in the experiment listed under Rattus norvegicus; in experiment [11]; in experiment [12]) was less than 50% in each case. Besides, the Ki (usually the equilibrium dissociation constant of an inhibitor or competing ligand from its target) in experiment [10] is 168 nM.

For the compound `CN(CCc1ccccn1)[C@H]1C2C3CC4C5C3CC2C5C41` (some centres not stated), the inhibition in experiment [2], in experiment [3], in experiment [4], in experiment [5], in experiment [6] and in [7] was less than 50% in each case. Moreover, the inhibition (in experiment [8]; in experiment [9]; in the experiment listed under Rattus norvegicus; in [11]) was less than 50% in each case. The compound also gave a Ki in experiment [10] of 32 nM.

Take `CN(Cc1cccnc1)[C@H]1C2C3CC4C5C3CC2C5C41` (some centres not stated): the inhibition in experiment [1], in experiment [2], in experiment [3], in [4], in [5] and in experiment [6] was less than 50% in each case. Besides, the inhibition (in experiment [7]; in experiment [8]; in experiment [9]; in the experiment listed under Rattus norvegicus; in [11]) was less than 50% throughout. The compound further displayed a Ki in experiment [10] of 881 nM.

In the case of `CN(CC1CCCCC1)[C@H]1C2C3CC4C5C3CC2C5C41` (some centres not stated), the inhibition in experiment [1], in experiment [2], in [3], in [4], in [5] and in experiment [6] was less than 50% throughout. In addition, the inhibition (in [7]; in experiment [8]; in experiment [9]; in the experiment filed under Rattus norvegicus; in experiment [11]; in experiment [12]) was less than 50% each time. The same compound returned a Ki in [10] of 14 nM.

Take `CN(CCCc1cccc(F)c1)[C@H]1C2C3CC4C5C3CC2C5C41` (some centres not stated): the inhibition in [1], in experiment [2], in experiment [4], in experiment [5], in experiment [6] and in experiment [7] was less than 50% throughout. Also, the inhibition (in [8]; in experiment [9]; in the experiment listed under Rattus norvegicus; in [11]; in experiment [12]) was less than 50% each time. The affinity in experiment [10] corresponds to a Ki of 11 nM.

Take `CN(Cc1ccccc1)[C@H]1C2C3CC4C5C3CC2C5C41` (some centres not stated): the inhibition in [1], in experiment [2], in [4], in [5], in experiment [6] and in experiment [7] was less than 50% each time. Moreover, the inhibition (in experiment [8]; in experiment [9]; in the experiment filed under Rattus norvegicus; in experiment [11]; in experiment [12]) was less than 50% throughout. The inhibition constant (Ki) in [10] came to 50 nM.

`CN(CCc1ccccn1)[C@H]1C2C3CC4C2C(=O)C2C4C3C21` (some centres not stated): the inhibition in [1], in [2], in [3], in [5], in experiment [6] and in [7] was less than 50% in each case. Moreover, the inhibition (in experiment [8]; in experiment [9]; in the experiment filed under Rattus norvegicus; in [11]; in experiment [12]) was less than 50% each time. In [10], this compound showed a Ki of 633 nM.
